Measurements published in US8697747B2, “Enhancing coagulation or reducing fibrinolysis” (THe UAB Research Foundation, priority 2009, dated 2014).
Marks after values point to notes of the source that are not given here.

Experiments:
[1] = tested on: rat plasma; assay: Thrombelastography in rat plasma with or without tPA; format: biochemical
Procedure: (§1) Two sets of two Sprague Dawley outbred male rats were anesthetized with ketamine and xylazine and had blood drawn via cardiac puncture, pooled in two batches, and anticoagulated 1:9 with 3.2% sodium citrate. Two male New Zealand White rabbits were sedated with acepromazine and had blood collected via central ear artery and similarly anticoagulated. Blood was centrifuged at 3000×g for 15 min, and the plasma stored in two batches until analyzed. The final volume for thrombelastographic plasma sample mixtures was 359.6 μL. Sample composition consisted of 316 μL of plasma; 10 μL of tissue factor reagent (0.1% final concentration in dH2O; Instrumentation Laboratory, Lexington, Mass.); 10 μL of dH2O or tissue-type plasminogen activator (tPA, 580 U/μg, Genentech, Inc., San Francisco, Calif.) for a final activity of 2000 U/mL for rat plasma or 300 IU/mL for rabbit plasma; 3.6 μL of dimethyl sulfoxide (DMSO) or DMSO with CORM-2 (100 μM final concentration; Sigma-Aldrich, St. Louis, Mo.); and 20 μL of 200 mM CaCl2. The tPA activity for each species was determined with pilot data to obtain reproducible lysis within 15 min. There was no appreciable lysis in rat plasma at 100, 300, or 1000 U/mL tPA. Plasma sample mixtures were placed in a disposable cup in a computer-controlled THROMBELASTOGRAPH® hemostasis system (Model 5000, Haemoscope Corp., Niles, Ill.), with addition of CaCl2 as the last step to initiate clotting. In experiments without tPA, data were collected until clot strength (maximum amplitude) was stable. In experiments with tPA, data derived from the second rabbit plasma samples were collected for 60 min whereas data obtained with the second rat plasma samples were collected for 15 min. Thrombelastographic variables were determined at 39° C. as previously described in Examples 1, 2, and 4. Data were statistically compared with unpaired Student's t-test.

[2] = tested on: rabbit plasma; assay: Thrombelastography in rabbit plasma with or without tPA; format: biochemical
Procedure: as §1

[3] = tested on: pooled normal plasma; assay: Dilution-response thrombelastography in plasma diluted with NS or VOL (no tPA); format: biochemical, human
Source text: Plasma and volume expanders. Pooled normal plasma (George King Bio-Medical, Overland Park, Kans.) anticoagulated with sodium citrate was utilized for experimentation. […] The volume expanders tested were 0.9% NaCl (Abbott Laboratories, North Chicago, Ill.; also designated as NS) and 6% hydroxylethyl starch (HES) in 0.9% NaCl (VOLUVEN®, average molecular weight 130 kDa, 0.4 degree of substitution, C2:C6 ratio of substitution 11.2; Fresenius Kabi, Bad Homburg, Germany; also referred to as VOL).
Plasma sample composition of dilution-response experiments. The final volume for all subsequently described plasma sample mixtures was 359.6 μL. Sample composition consisted of 326 μL of plasma/volume expander, 10 μL of tissue factor reagent (0.1% final concentration in dH2O; Instrumentation Laboratory, Lexington, Mass.), 3.6 μL of dimethyl sulfoxide (DMSO) or DMSO with CORM-2 (100 μM final concentration; Sigma-Aldrich, St. Louis, Mo.), and 20 μL of 200 mM CaCl2. Tissue factor stock was kept on ice prior to use and was remade every two hours. […] DMSO was added to dry CORM-2 just prior to placement into the plasma mixture. Plasma was diluted 0%, 20%, 30%, 40% or 50% with NS or VOL (n=4 per condition).
Clot Lifespan Model (CLSM) Analyses. Plasma sample mixtures were placed in a disposable cup in a computer-controlled THROMBELASTOGRAPH® hemostasis system (Model 5000, Haemoscope Corp., Niles, Ill.), with addition of CaCl2 as the last step to initiate clotting. In the first series of experiments, no tPA was added, so data were collected until clot strength (maximum amplitude) was stable. In the second series of experiments which in tPA was added, data were collected until clot lysis time occurred. […] Additional elastic modulus-based parameters were determined and the nomenclature used to describe these phenomena is as follows: Time to maximum rate of thrombus generation (TMRTG): This is the time interval (sec) observed prior to maximum speed of clot growth. Maximum rate of thrombus generation (MRTG): This is the maximum velocity of clot growth observed (dynes/cm^2/sec). Total Thrombus Generation (TTG): This is the total area under the velocity curve during clot growth (dynes/cm^2), representing the amount of clot strength generated during clot growth. Time to maximum rate of lysis (TMRL): This is the time interval (sec) measured from the time of maximum strength to the time when the velocity of clot disintegration is maximal. Maximum Rate of Lysis (MRL): This is the maximum velocity of clot disintegration observed (−dynes/cm^2/sec). Area of Clot Lysis (ACL): This is the total area under the velocity curve during clot disintegration (−dynes/cm^2), representing the amount of clot strength lost during clot disintegration. As this model involves complete fibrinolysis, TTG is equivalent to ACL, so ACL was not presented as it provides no additional information.
Statistical Analyses. Data obtained from pooled normal plasma not exposed to tPA were graphically represented with commercially available software (SigmaPlot 11.0, Systat Software, Inc., San Jose, Calif.), and kinetic modeling of thrombelastographic data performed with the same software. Analyses of the effects of hemodilution and CORM-2 on CLSM variables obtained from pooled normal plasma were conducted using Kruskal-Wallis one way analysis of variance with Student-Newman-Keuls post-hoc test. […] These analyses were conducted with the same commercially available software (SigmaPlot 11.0). A P value of <0.05 was considered significant.

[4] = 2000 U/ml tPA, 100 μM CORM-2, mean ± SD, n=4
[5] = 2000 U/ml tPA, 100 μM vs 0 μM CORM-2
[6] = no tPA, 100 μM CORM-2, mean ± SD, n=4
[7] = 300 U/ml tPA, 100 μM CORM-2, mean ± SD, n=4
[8] = 300 U/ml tPA, 100 μM vs 0 μM CORM-2
[9] = no tPA, 100 μM CORM-2, mean ± SD, n=7
[10] = 20% dilution with VOL + 100 μM CORM-2, no tPA
[11] = 30% dilution with VOL + 100 μM CORM-2, no tPA
[12] = 40% dilution with VOL + 100 μM CORM-2, no tPA
[13] = 50% dilution with VOL + 100 μM CORM-2, no tPA
[14] = undiluted samples, no tPA, 100 μM CORM-2

[C-]#[O+].[C-]#[O+].[C-]#[O+].[C-]#[O+].[C-]#[O+].[C-]#[O+].[Cl][Ru][Cl].[Cl][Ru][Cl] [CORM-2, tricarbonyldichlororuthenium (II) dimer] was tested, and the “ACL (area under the curve of lysis)” value [1, 4] was 0 ± 0 −dynes/cm^2, the “MRL (maximum rate of lysis)” value [1, 4] was 0.0 ± 0.0 −dynes/cm^2/sec and the “MRTG (maximum rate of thrombus generation)” value [1, 4] was 14.7 ± 0.6 dynes/cm^2/sec. The “TMRTG (time to maximum rate of thrombus generation)” value [1, 4] was 1.5 ± 0.1 min, the “TTG (total thrombus generation)” value [1, 4] was 230 ± 6 dynes/cm^2 and the “TMRL (time to maximum rate of lysis)” value ([1]; 2000 U/ml tPA, 100 μM CORM-2, n=4) was “No Lysis”. For the same compound, the “Percent Change of ACL” value [1, 5] was −100%, the “Percent Change of MRL” value [1, 5] was −100% and the “Percent Change of MRTG” value [1, 5] was 29%. The “Percent Change of TMRTG” value [1, 5] was 0%, the “Percent Change of TTG” value [1, 5] was 23% and the “MRTG (maximum rate of thrombus generation)” value [1, 6] was 14.7 ± 0.6 dynes/cm^2/sec. The “TMRTG (time to maximum rate of thrombus generation)” value [1, 6] was 1.5 ± 0.1 min, the “TTG (total thrombus generation)” value [1, 6] was 230 ± 6 dynes/cm^2 and the “Percent Change of MRTG” value ([1]; no tPA, 100 μM vs 0 μM CORM-2) was 29%. The “Percent Change of TMRTG” value ([1]; no tPA, 100 μM vs 0 μM CORM-2) was 0%, the “Percent Change of TTG” value ([1]; no tPA, 100 μM vs 0 μM CORM-2) was 23% and the “ACL (area under the curve of lysis)” value [2, 7] was 196.3 ± 25*^ −dynes/cm^2. For the same compound, the “MRL (maximum rate of lysis)” value [2, 7] was −2.5 ± 0.4 −dynes/cm^2/sec, the “MRTG (maximum rate of thrombus generation)” value [2, 7] was 14.2 ± 1.4 dynes/cm^2/sec and the “TMRL (time to maximum rate of lysis)” value [2, 7] was 2.6 ± 0.5 min. The “TMRTG (time to maximum rate of thrombus generation)” value [2, 7] was 2.8 ± 0.1 min, the “TTG (total thrombus generation)” value [2, 7] was 237 ± 8 dynes/cm^2 and the “Percent Change of ACL” value [2, 8] was 94%. The “Percent Change of MRL” value [2, 8] was −63%, the “Percent Change of MRTG” value [2, 8] was 52% and the “Percent Change of TMRL” value [2, 8] was 110%. The “Percent Change of TMRTG” value [2, 8] was 8%, the “Percent Change of TTG” value [2, 8] was 118% and the “MRTG (maximum rate of thrombus generation)” value [2, 9] was 13.9 ± 2.9 dynes/cm^2/sec. The “TMRTG (time to maximum rate of thrombus generation)” value [2, 9] was 2.8 ± 0.1 min, the “TTG (total thrombus generation)” value [2, 9] was 290 ± 35 dynes/cm^2 and the “Percent Change of MRTG” value ([2]; no tPA, 100 μM vs 0 μM CORM-2) was 46%. The “Percent Change of TMRTG” value ([2]; no tPA, 100 μM vs 0 μM CORM-2) was 5%, the “Percent Change of TTG” value ([2]; no tPA, 100 μM vs 0 μM CORM-2) was 25% and the “MRTG, % of undiluted samples” value [3, 10] was 93%. For the same compound, the “TTG, % of undiluted samples” value [3, 10] was 76%, the “MRTG, % of undiluted samples” value [3, 11] was 67% and the “TTG, % of undiluted samples” value [3, 11] was 50%. The “MRTG, % of undiluted samples” value [3, 12] was 60%, the “TTG, % of undiluted samples” value [3, 12] was 45% and the “MRTG, % of undiluted samples” value [3, 13] was 22%. For the same compound, the “TTG, % of undiluted samples” value [3, 13] was 17%, the “increase in MRTG with CORM-2 exposure” value ([3]; samples diluted 50% with NS, no tPA, 100 μM CORM-2) was 12% and the “MRTG greater than matched diluted samples not exposed to CORM-2” value ([3]; samples diluted with NS (except 50%), no tPA, 100 μM CORM-2) was 40-50%. For the same compound, the “increase in MRTG” value [3, 14] was 75% and the “increase in TTG” value [3, 14] was 59%.
